The test system of experiment [1] is wild-type E. coli A-1261. Put plainly: MIC against wild-type E. coli A-1261 with or without alkaline phosphatase or esterase. To be noted: Escherichia coli. It counts as cell-based. The protocol:
Minimal Inhibitory Concentrations (MICs; mg/L) were determined in cation-adjusted Mueller-Hinton Broth by a microdilution method following the description given in “Methods for Dilution Antimicrobial Susceptibility Tests for Bacteria that Grow Aerobically”, Approved standard, 7th ed., Clinical and Laboratory Standards Institute (CLSI) Document M7-A7, Wayne, Pa., USA (2006).
The compounds of Examples 62 and 63 were tested against wild-type E. coli A-1261 in the absence of alkaline phosphatase or esterase, in the presence of an alkaline phosphatase and in the presence of an esterase. The corresponding antibacterial test results are given in Table 2 hereafter (MICs in mg/L).

Experiment [2] has as its system P. aeruginosa ATCC27853. Put plainly: Bacterial growth minimal inhibitory concentration (broth microdilution, CLSI M7-A7). Format: cell-based, Pseudomonas aeruginosa. Particulars: cation-adjusted Mueller-Hinton Broth, microdilution, quinolone-sensitive strain; for MIC: Pseudomonas aeruginosa, ATCC27853, read-out: MIC for P. aeruginosa ATCC27853. In a few lines: (§1)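 Broth microdilution in cation-adjusted Mueller-Hinton Broth per CLSI M7-A7; MICs reported in mg/L. K. pneumoniae A-651 and A. baumannii T6474 are multiply resistant, quinolone-resistant strains; E. coli ATCC25922 and P. aeruginosa ATCC27853 are quinolone-sensitive.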

In experiment [3] the test system is Acinetobacter baumannii T6474. The experiment is described as above. It counts as cell-based. To be noted: cation-adjusted Mueller-Hinton Broth, microdilution, multiply-resistant (quinolone-resistant) strain; for MIC: Acinetobacter baumannii, T6474, read-out: MIC for A. Baumannii T6474. The procedure, abridged:
as §1

In experiment [4] the test system is K. pneumoniae A-651. The experiment is described as above. It counts as cell-based, Klebsiella pneumoniae. To be noted: cation-adjusted Mueller-Hinton Broth, microdilution, multiply-resistant (quinolone-resistant) strain; for MIC: Klebsiella pneumoniae, A651, read-out: MIC for K. Pneumoniae A-651. In a few lines:
as §1

The subject of experiment [5] is E. coli ATCC25922. Described as above. Format: cell-based, Escherichia coli. Particulars: cation-adjusted Mueller-Hinton Broth, microdilution, quinolone-sensitive strain; for MIC: Escherichia coli, ATCC25922, read-out: MIC for E. coli ATCC25922. The procedure, abridged:
as §1
Background: Broth dilution looks for growth in wells or tubes with falling amounts of substance.

The mark [6] stands for this setting: alkaline phosphatase 2 i.U./mL, read-out: MIC for E. coli A-1261 In the presence of an alkaline phosphatase (2 i.U./mL).
The mark [7] stands for this setting: esterase 10 i.U./mL, read-out: MIC for E. coli A-1261 In the presence of an esterase (10 i.U./mL).
Setting [8] is: no alkaline phosphatase or esterase, read-out: MIC for E. coli A-1261 In the absence of alkaline phosphatase or esterase.

In brackets after ≈: the same amount, converted by molar mass. Read-outs that look alike come from different tables or passages of the source. A value given as a limit tells only on which side of the number the result lay.

As for `C[C@@](CCn1cc2cc(C#Cc3ccc(C4(COP(=O)(O)O)CC4)cc3)ccc2n1)(C(=O)NO)S(C)(=O)=O` [Example 62, (R)-(1-(4-((2-(4-(hydroxyamino)-3-methyl-3-(methylsulfonyl)-4-oxobutyl)-2H-indazol-5-yl)ethynyl)phenyl)cyclopropyl)methyl dihydrogen phosphate], the MIC was 1 mg/L in experiment [1] (setting [6]), > 16 mg/L in experiment [1] (setting [7]) and > 16 mg/L in experiment [1] (setting [8]).
Consider `CN(C)CC(=O)OCC1(c2ccc(C#Cc3ccc4nn(CC[C@](C)(C(=O)NO)S(C)(=O)=O)cc4c3)cc2)CC1.Cl` [Example 63, (R)-(1-(4-((2-(4-(hydroxyamino)-3-methyl-3-(methylsulfonyl)-4-oxobutyl)-2H-indazol-5-yl)ethynyl)phenyl)cyclopropyl)methyl dimethylglycinate hydrochloride], for which the MIC is 0.5 mg/L in experiment [1] (setting [6]); 0.063 mg/L in experiment [1] (setting [7]); 0.25 mg/L in experiment [1] (setting [8]); 8 mg/L in experiment [2]; 8 mg/L in experiment [3]; 4 mg/L in experiment [4]. In addition, the MIC in experiment [5] is 2 mg/L.
In the case of `C[C@@](CCn1cc2cc(C#Cc3ccc(C4(N)CC4)cc3)ccc2n1)(C(=O)NO)S(C)(=O)=O.O=CO` [Example 79, (R)-4-(5-((4-(1-aminocyclopropyl)phenyl)ethynyl)-2H-indazol-2-yl)-N-hydroxy-2-methyl-2-(methylsulfonyl)butanamide formate], the MIC in experiment [2] was determined as 1 mg/L; in experiment [3], 2 mg/L; in experiment [4], 0.25 mg/L; in experiment [5] it was 0.125 mg/L.
Taken in the same sequence, the figures for `C[C@@](CCn1cc2cc(C#CC#CCC3(O)COC3)ccc2n1)(C(=O)NO)S(C)(=O)=O` [Example 80, (R)—N-hydroxy-4-(5-(5-(3-hydroxyoxetan-3-yl)penta-1,3-diyn-1-yl)-2H-indazol-2-yl)-2-methyl-2-(methylsulfonyl)butanamide] were 1 mg/L (≈ 2.24 µM), 32 mg/L (≈ 71.8 µM), 1 mg/L (≈ 2.24 µM) and 0.5 mg/L (≈ 1.12 µM).
For `C[C@@](CCn1cc2cc(C#CC#CC3CN(C(=O)CO)C3)ccc2n1)(C(=O)NO)S(C)(=O)=O` [Example 81, (R)—N-hydroxy-4-(5-((1-(2-hydroxyacetyl)azetidin-3-yl)buta-1,3-diyn-1-yl)-2H-indazol-2-yl)-2-methyl-2-(methylsulfonyl)butanamide] the same measures were 1 mg/L (≈ 2.12 µM), 4 mg/L (≈ 8.47 µM), 1 mg/L (≈ 2.12 µM) and 0.5 mg/L (≈ 1.06 µM).
For `CC(C)(N)CC#CC#Cc1ccc2nn(CC[C@](C)(C(=O)NO)S(C)(=O)=O)cc2c1` [Example 82, (R)-4-(5-(6-amino-6-methylhepta-1,3-diyn-1-yl)-2H-indazol-2-yl)-N-hydroxy-2-methyl-2-(methylsulfonyl)butanamide] the same measures were 4 mg/L (≈ 9.29 µM), > 32 mg/L, 8 mg/L (≈ 18.6 µM) and 4 mg/L (≈ 9.29 µM).
Consider `C[C@@](CCn1cc2cc(C#CC#CC3CCN(C(=O)CN)CC3)ccc2n1)(C(=O)NO)S(C)(=O)=O.O=CO` [Example 83, (R)-4-(5-((1-glycylpiperidin-4-yl)buta-1,3-diyn-1-yl)-2H-indazol-2-yl)-N-hydroxy-2-methyl-2-(methylsulfonyl)butanamide formate], for which the MIC came out at 4 mg/L in experiment [2], 32 mg/L in experiment [3], 8 mg/L in experiment [4] and 2 mg/L in experiment [5].
Taken in the same sequence, the figures for `C[C@@](CCn1cc2cc(C#CC#CC3CN(C(=O)CN)C3)ccc2n1)(C(=O)NO)S(C)(=O)=O` [Example 84, (R)-4-(5-((1-glycylazetidin-3-yl)buta-1,3-diyn-1-yl)-2H-indazol-2-yl)-N-hydroxy-2-methyl-2-(methylsulfonyl)butanamide] were 0.5 mg/L (≈ 1.06 µM), > 32 mg/L, 4 mg/L (≈ 8.48 µM) and 1 mg/L (≈ 2.12 µM).
Taken in the same sequence, the figures for `CC(C)(N)C(=O)N1CC(C#CC#Cc2ccc3nn(CC[C@](C)(C(=O)NO)S(C)(=O)=O)cc3c2)C1` [Example 85, (R)-4-(5-((1-(2-amino-2-methylpropanoyl)azetidin-3-yl)buta-1,3-diyn-1-yl)-2H-indazol-2-yl)-N-hydroxy-2-methyl-2-(methylsulfonyl)butanamide] were 2 mg/L (≈ 4 µM), > 32 mg/L, 8 mg/L (≈ 16 µM) and 4 mg/L (≈ 8.01 µM).
For “(R)-4-(5-(5-amino-5-methylhexa-1,3-diyn-1-yl)-2H-indazol-2-yl)-N-hydroxy-2-methyl-2-(methylsulfonyl)butanamide [Example 24]”, the “MIC for P. aeruginosa ATCC27853” value in experiment [2] came out at 0.5 mg/L. Besides, in experiment [3], the “MIC for A. Baumannii T6474” value is listed as >32 mg/L. In addition, the “MIC for K. Pneumoniae A-651” value in experiment [4] is 1 mg/L. Further, the “MIC for E. coli ATCC25922” value in experiment [5] was 0.5 mg/L.

For the origin of these results see patent US9802901B2, “Antibacterial 2H-indazole derivatives” (priority 2013, dated 2017).
